Measurements reported in PubChem BioAssay (NCI).
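Assay format: 96-well plates, 48-hour exposure. TGI: total growth inhibition.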

Tests used:
Assay in all cases: growth of human tumour cells (NCI), 48 h
[1] = tested on: MDA-N
[2] = tested on: HOP-92 NSCLC
[3] = tested on: SF-295 CNS
[4] = tested on: U251 CNS
[5] = tested on: TK-10 renal
[6] = tested on: SNB-19 CNS
[7] = tested on: A498 renal
[8] = tested on: SK-OV-3 ovarian
[9] = tested on: OVCAR-4 ovarian
[10] = tested on: EKVX NSCLC
[11] = tested on: RXF 393 renal
[12] = tested on: NCI-H522 lung
[13] = tested on: SK-MEL-5 melanoma
[14] = tested on: UO-31 renal
[15] = tested on: UACC-62 melanoma
[16] = tested on: LOX IMVI melanoma
[17] = tested on: HOP-62 NSCLC
[18] = tested on: SK-MEL-2 melanoma
[19] = tested on: M14 melanoma
[20] = tested on: T-47D breast
[21] = tested on: BT-549 breast
[22] = tested on: OVCAR-8 ovarian
[23] = tested on: MDA-MB-231 breast
[24] = tested on: CCRF-CEM leukemia
[25] = tested on: A549 NSCLC
[26] = tested on: HS 578T breast
[27] = tested on: HCT-116 colon
[28] = tested on: SW-620 colon
[29] = tested on: NCI-H23 lung
[30] = tested on: MDA-MB-435
[31] = tested on: SF-539 CNS
[32] = tested on: OVCAR-3 ovarian
[33] = tested on: 786-0 renal
[34] = tested on: PC-3 prostate
[35] = tested on: CAKI-1 renal
[36] = tested on: HCT-15 colon
[37] = tested on: COLO 205 colon
[38] = tested on: SK-MEL-28 melanoma
[39] = tested on: SNB-75 CNS
[40] = tested on: MALME-3M melanoma
[41] = tested on: IGROV1 ovarian
[42] = tested on: SF-268 CNS
[43] = tested on: UACC-257 melanoma
[44] = tested on: SR leukemia
[45] = tested on: NCI-H460 lung
[46] = tested on: MOLT-4 leukemia
[47] = tested on: K-562 leukemia
[48] = tested on: ACHN renal
[49] = tested on: HT29 colon
[50] = tested on: RPMI-8226 leukemia
[51] = tested on: KM12 colon
[52] = tested on: DU-145 prostate
[53] = tested on: NCI/ADR-RES ovarian
[54] = tested on: OVCAR-5 ovarian
[55] = tested on: SN12C renal
[56] = tested on: MCF7 breast

## Clc1ccc(Cl)c(Nc2ccnc(SCc3ccccc3)n2)c1
[1]
  TGI: > 100 µM
[2]
  TGI: > 100 µM
[3]
  TGI: > 100 µM
[4]
  TGI: > 100 µM
[5]
  TGI: > 100 µM
[6]
  TGI: > 100 µM
[7]
  TGI: > 100 µM
[8]
  TGI: > 100 µM
[9]
  TGI: > 100 µM
[10]
  TGI: > 100 µM
[11]
  TGI: 79.4 µM
[12]
  TGI: > 100 µM
[13]
  TGI: > 100 µM
[14]
  TGI: > 100 µM
[15]
  TGI: > 100 µM
[16]
  TGI: > 100 µM
[17]
  TGI: > 100 µM
[18]
  TGI: > 100 µM
[19]
  TGI: > 100 µM
[20]
  TGI: > 100 µM
[21]
  TGI: > 100 µM
[22]
  TGI: > 100 µM
[23]
  TGI: > 100 µM
[24]
  TGI: > 100 µM
[25]
  TGI: > 100 µM
[26]
  TGI: > 100 µM
[27]
  TGI: > 100 µM
[28]
  TGI: > 100 µM
[29]
  TGI: > 100 µM
[30]
  TGI: > 100 µM
[31]
  TGI: > 100 µM
[32]
  TGI: > 100 µM
[33]
  TGI: > 100 µM
[34]
  TGI: > 100 µM
[35]
  TGI: > 100 µM
[36]
  TGI: > 100 µM
[37]
  TGI: > 100 µM
[38]
  TGI: > 100 µM
[39]
  TGI: > 100 µM
[40]
  TGI: > 100 µM
[41]
  TGI: > 100 µM
[42]
  TGI: > 100 µM
[43]
  TGI: > 100 µM
[44]
  TGI: > 100 µM
[45]
  TGI: > 100 µM
[46]
  TGI: > 100 µM
[47]
  TGI: > 100 µM
[48]
  TGI: > 100 µM
[49]
  TGI: > 100 µM
[50]
  TGI: > 100 µM
[51]
  TGI: > 100 µM
[52]
  TGI: > 100 µM
[53]
  TGI: > 100 µM
[54]
  TGI: > 100 µM
[55]
  TGI: > 100 µM
[56]
  TGI: > 100 µM
